PubChem BioAssay (NCI)
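Grown in 96-well plates, cells were treated for 48 hours with each compound at five concentrations. Insufficient inhibition: endpoint recorded as highest concentration tested. The concentration for full growth arrest is given as TGI.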

Assays:
Assay in all cases: NCI-60 cell line screen, 48 h
786-0 renal = tested on: 786-0 renal
A498 renal = tested on: A498 renal
A549 NSCLC = tested on: A549 NSCLC
ACHN renal = tested on: ACHN renal
CCRF-CEM leukemia = tested on: CCRF-CEM leukemia
COLO 205 colon = tested on: COLO 205 colon
DLD-1 colon = tested on: DLD-1 colon
DMS 114 small cell lung = tested on: DMS 114 small cell lung
EKVX NSCLC = tested on: EKVX NSCLC
HCC-2998 colon = tested on: HCC-2998 colon
HCT-116 colon = tested on: HCT-116 colon
HCT-15 colon = tested on: HCT-15 colon
HL-60(TB) leukemia = tested on: HL-60(TB) leukemia
HOP-62 NSCLC = tested on: HOP-62 NSCLC
HT29 colon = tested on: HT29 colon
IGROV1 ovarian = tested on: IGROV1 ovarian
K-562 leukemia = tested on: K-562 leukemia
KM12 colon = tested on: KM12 colon
KM20L2 colon = tested on: KM20L2 colon
LXFL 529 NSCLC = tested on: LXFL 529 NSCLC
M14 melanoma = tested on: M14 melanoma
M19-MEL melanoma = tested on: M19-MEL melanoma
MALME-3M melanoma = tested on: MALME-3M melanoma
MOLT-4 leukemia = tested on: MOLT-4 leukemia
NCI-H226 lung = tested on: NCI-H226 lung
NCI-H23 lung = tested on: NCI-H23 lung
NCI-H460 lung = tested on: NCI-H460 lung
NCI-H522 lung = tested on: NCI-H522 lung
OVCAR-3 ovarian = tested on: OVCAR-3 ovarian
OVCAR-4 ovarian = tested on: OVCAR-4 ovarian
OVCAR-5 ovarian = tested on: OVCAR-5 ovarian
OVCAR-8 ovarian = tested on: OVCAR-8 ovarian
RPMI-8226 leukemia = tested on: RPMI-8226 leukemia
RXF 393 renal = tested on: RXF 393 renal
RXF-631 renal = tested on: RXF-631 renal
SF-268 CNS = tested on: SF-268 CNS
SF-295 CNS = tested on: SF-295 CNS
SF-539 CNS = tested on: SF-539 CNS
SK-MEL-2 melanoma = tested on: SK-MEL-2 melanoma
SK-MEL-28 melanoma = tested on: SK-MEL-28 melanoma
SK-OV-3 ovarian = tested on: SK-OV-3 ovarian
SN12C renal = tested on: SN12C renal
SNB-19 CNS = tested on: SNB-19 CNS
SNB-75 CNS = tested on: SNB-75 CNS
SNB-78 CNS = tested on: SNB-78 CNS
SR leukemia = tested on: SR leukemia
SW-620 colon = tested on: SW-620 colon
TK-10 renal = tested on: TK-10 renal
U251 CNS = tested on: U251 CNS
UACC-257 melanoma = tested on: UACC-257 melanoma
UACC-62 melanoma = tested on: UACC-62 melanoma
UO-31 renal = tested on: UO-31 renal
CAKI-1 renal = tested on: CAKI-1 renal
DMS 273 small cell lung = tested on: DMS 273 small cell lung
HOP-18 NSCLC = tested on: HOP-18 NSCLC
HOP-92 NSCLC = tested on: HOP-92 NSCLC
LOX IMVI melanoma = tested on: LOX IMVI melanoma
SK-MEL-5 melanoma = tested on: SK-MEL-5 melanoma
XF 498 CNS = tested on: XF 498 CNS

Measured: TGI

CC1CC(c2ccc(Cl)cc2)=Nc2ccccc2S1 (centres undefined)
not listed: CAKI-1 renal | DMS 273 small cell lung | HOP-18 NSCLC | HOP-92 NSCLC | LOX IMVI melanoma | SK-MEL-5 melanoma | XF 498 CNS
> 100 µM: all other assays above

CN(C)C=C1C(=O)N(C)C(=O)N(C)C1=O
not listed: COLO 205 colon | HOP-62 NSCLC | IGROV1 ovarian | NCI-H522 lung | RXF-631 renal | SF-268 CNS | SK-OV-3 ovarian
> 100 µM: all other assays above

C/C(CC(=O)Nc1ccccc1[N+](=O)[O-])=N\NC(N)=O
not listed: A498 renal | HCT-15 colon | OVCAR-4 ovarian | SN12C renal | SNB-19 CNS | SR leukemia | CAKI-1 renal | DMS 273 small cell lung | HOP-18 NSCLC
> 100 µM: all other assays above
